{
  "source": "PubChem BioAssay AID250",
  "about": "(DTP/NCI, 2004)",
  "system": "BDF1 mice, L1210 leukemia sc, survival T/C",
  "assay": "NCI In Vivo Anticancer Drug Screen. Data for tumor model L1210 Leukemia (subcutaneous) in B6D2F1 (BDF1) mice",
  "settings": "endpoint: median survival time, higher = longer survival",
  "summary_of_the_method": "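Tumors were transplanted into mice, the animals were treated with compound, survival or tumor size was then measured, and treated values were divided by vehicle-control values.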",
  "key": {"[1]": {"settings": "dose: 62.0 mg/kg/injection, schedule: Q01DX Z (sc), vehicle: methylcellulose (MC)"}, "[2]": {"settings": "dose: 250.0 mg/kg/injection, schedule: Q01DX Z (sc), vehicle: methylcellulose (MC)"}, "[3]": {"settings": "dose: 65.0 mg/kg/injection, schedule: Q01DX Z (sc), vehicle: methylcellulose (MC)"}, "[4]": {"settings": "dose: 108.0 mg/kg/injection, schedule: Q01DX Z (sc), vehicle: methylcellulose (MC)"}, "[5]": {"settings": "dose: 180.0 mg/kg/injection, schedule: Q01DX Z (sc), vehicle: methylcellulose (MC)"}},
  "note": "Toxic doses and inconclusive results are not listed.",
  "data": [
    {"smiles": "Nc1[nH]c(=O)nc2[nH]ncc12", "values": [
      {"measurement": "T/C", "setting": "dose: 46.8 mg/kg/injection, schedule: Q01DX Z (sc), vehicle: methylcellulose (MC)", "result": "100 % of control"},
      {"measurement": "T/C", "setting": "dose: 78.0 mg/kg/injection, schedule: Q01DX Z (sc), vehicle: methylcellulose (MC)", "result": "100 % of control"},
      {"measurement": "T/C", "setting": "dose: 130.0 mg/kg/injection, schedule: Q01DX Z (sc), vehicle: methylcellulose (MC)", "result": "100 % of control"},
      {"measurement": "T/C", "setting": "dose: 216.0 mg/kg/injection, schedule: Q01DX Z (sc), vehicle: methylcellulose (MC)", "result": "108 % of control"},
      {"measurement": "T/C", "setting": "dose: 360.0 mg/kg/injection, schedule: Q01DX Z (sc), vehicle: methylcellulose (MC)", "result": "104 % of control"},
      {"measurement": "T/C", "setting": "dose: 600.0 mg/kg/injection, schedule: Q01DX Z (sc), vehicle: methylcellulose (MC)", "result": "100 % of control"}
    ]},
    {"smiles": "CCN(O)C(N)=O", "values": [
      {"measurement": "T/C", "setting": "dose: 1.0 mg/kg/injection, schedule: Q01DX Z (sc), vehicle: methylcellulose (MC)", "result": "95 % of control"},
      {"measurement": "T/C", "setting": "dose: 2.0 mg/kg/injection, schedule: Q01DX Z (sc), vehicle: methylcellulose (MC)", "result": "104 % of control"},
      {"measurement": "T/C", "setting": "dose: 4.0 mg/kg/injection, schedule: Q01DX Z (sc), vehicle: methylcellulose (MC)", "result": "91 % of control"},
      {"measurement": "T/C", "setting": "dose: 8.0 mg/kg/injection, schedule: Q01DX Z (sc), vehicle: methylcellulose (MC)", "result": "100 % of control"},
      {"measurement": "T/C", "setting": "dose: 16.0 mg/kg/injection, schedule: Q01DX Z (sc), vehicle: methylcellulose (MC)", "result": "100 % of control"},
      {"measurement": "T/C", "setting": "dose: 31.0 mg/kg/injection, schedule: Q01DX Z (sc), vehicle: methylcellulose (MC)", "result": "100 % of control"},
      {"measurement": "T/C", "setting": "[1]", "result": "100 % of control"},
      {"measurement": "T/C", "setting": "dose: 125.0 mg/kg/injection, schedule: Q01DX Z (sc), vehicle: methylcellulose (MC)", "result": "100 % of control"},
      {"measurement": "T/C", "setting": "[2]", "result": "112 % of control"}
    ]},
    {"smiles": "CCC(=O)O[C@H]1CC[C@H]2[C@@H]3CC[C@H]4CC(=O)[C@H](C)C[C@]4(C)[C@H]3CC[C@]12C", "values": [
      {"measurement": "T/C", "setting": "dose: 23.0 mg/kg/injection, schedule: Q01DX Z (sc), vehicle: methylcellulose (MC)", "result": "100 % of control"},
      {"measurement": "T/C", "setting": "[3]", "result": "100 % of control"},
      {"measurement": "T/C", "setting": "[4]", "result": "100 % of control"},
      {"measurement": "T/C", "setting": "[5]", "result": "100 % of control"}
    ]},
    {"smiles": "O=C1CCC(N2C(=O)c3ccccc3C2=O)C(=O)N1", "note": "(stereo unspecified)", "values": [
      {"measurement": "T/C", "setting": "dose: 6.0 mg/kg/injection, schedule: Q01DX Z (sc), vehicle: methylcellulose (MC)", "result": "100 % of control"},
      {"measurement": "T/C", "setting": "dose: 12.0 mg/kg/injection, schedule: Q01DX Z (sc), vehicle: methylcellulose (MC)", "result": "100 % of control"},
      {"measurement": "T/C", "setting": "dose: 24.0 mg/kg/injection, schedule: Q01DX Z (sc), vehicle: methylcellulose (MC)", "result": "100 % of control"},
      {"measurement": "T/C", "setting": "dose: 48.0 mg/kg/injection, schedule: Q01DX Z (sc), vehicle: methylcellulose (MC)", "result": "100 % of control"},
      {"measurement": "T/C", "setting": "[3]", "result": "100 % of control"},
      {"measurement": "T/C", "setting": "[4]", "result": "94 % of control"},
      {"measurement": "T/C", "setting": "[5]", "result": "88 % of control"},
      {"measurement": "T/C", "setting": "dose: 300.0 mg/kg/injection, schedule: Q01DX Z (sc), vehicle: methylcellulose (MC)", "result": "100 % of control"},
      {"measurement": "T/C", "setting": "dose: 500.0 mg/kg/injection, schedule: Q01DX Z (sc), vehicle: methylcellulose (MC)", "result": "100 % of control"}
    ]},
    {"smiles": "Nc1nncs1", "values": [
      {"measurement": "T/C", "setting": "dose: 50.0 mg/kg/injection, schedule: Q04DX004 (sc), vehicle: water", "result": "111 % of control"},
      {"measurement": "T/C", "setting": "dose: 100.0 mg/kg/injection, schedule: Q04DX004 (sc), vehicle: water", "result": "101 % of control"},
      {"measurement": "T/C", "setting": "dose: 200.0 mg/kg/injection, schedule: Q04DX004 (sc), vehicle: water", "result": "106 % of control"},
      {"measurement": "T/C", "setting": "dose: 200.0 mg/kg/injection, schedule: Q08DX003 (sc), vehicle: water", "result": "101 % of control"},
      {"measurement": "T/C", "setting": "dose: 400.0 mg/kg/injection, schedule: Q04DX004 (sc), vehicle: water", "result": "111 % of control"},
      {"measurement": "T/C", "setting": "dose: 400.0 mg/kg/injection, schedule: Q08DX003 (sc), vehicle: water", "result": "108 % of control"},
      {"measurement": "T/C", "setting": "dose: 800.0 mg/kg/injection, schedule: Q08DX003 (sc), vehicle: water", "result": "109 % of control"},
      {"measurement": "T/C", "setting": "dose: 1600.0 mg/kg/injection, schedule: Q08DX003 (sc), vehicle: water", "result": "117 % of control"}
    ]},
    {"smiles": "CCN(CC)CCNC(=O)N(Cc1ccccc1)c1ccccc1", "values": [
      {"measurement": "T/C", "setting": "dose: 22.0 mg/kg/injection, schedule: Q01DX Z (sc), vehicle: methylcellulose (MC)", "result": "100 % of control"},
      {"measurement": "T/C", "setting": "dose: 37.0 mg/kg/injection, schedule: Q01DX Z (sc), vehicle: methylcellulose (MC)", "result": "100 % of control"},
      {"measurement": "T/C", "setting": "[1]", "result": "100 % of control"},
      {"measurement": "T/C", "setting": "dose: 104.0 mg/kg/injection, schedule: Q01DX Z (sc), vehicle: methylcellulose (MC)", "result": "100 % of control"},
      {"measurement": "T/C", "setting": "dose: 173.0 mg/kg/injection, schedule: Q01DX Z (sc), vehicle: methylcellulose (MC)", "result": "100 % of control"},
      {"measurement": "T/C", "setting": "dose: 288.0 mg/kg/injection, schedule: Q01DX Z (sc), vehicle: methylcellulose (MC)", "result": "100 % of control"},
      {"measurement": "T/C", "setting": "dose: 480.0 mg/kg/injection, schedule: Q01DX Z (sc), vehicle: methylcellulose (MC)", "result": "100 % of control"},
      {"measurement": "T/C", "setting": "dose: 800.0 mg/kg/injection, schedule: Q01DX Z (sc), vehicle: methylcellulose (MC)", "result": "100 % of control"}
    ]},
    {"smiles": "CCSc1nc(Cl)cc(Sc2nc(N)nc3nc[nH]c23)n1", "values": [
      {"measurement": "T/C", "setting": "dose: 97.5 mg/kg/injection, schedule: Q01DX Z (sc), vehicle: methylcellulose (MC)", "result": "100 % of control"},
      {"measurement": "T/C", "setting": "dose: 156.0 mg/kg/injection, schedule: Q01DX Z (sc), vehicle: methylcellulose (MC)", "result": "100 % of control"},
      {"measurement": "T/C", "setting": "[2]", "result": "100 % of control"},
      {"measurement": "T/C", "setting": "dose: 400.0 mg/kg/injection, schedule: Q01DX Z (sc), vehicle: methylcellulose (MC)", "result": "100 % of control"},
      {"measurement": "T/C", "setting": "dose: 640.0 mg/kg/injection, schedule: Q01DX Z (sc), vehicle: methylcellulose (MC)", "result": "95 % of control"}
    ]},
    {"smiles": "COC(=O)c1[nH]c(=O)[nH]c(=O)c1F", "values": [
      {"measurement": "T/C", "setting": "dose: 5.0 mg/kg/injection, schedule: Q01DX Z (sc), vehicle: methylcellulose (MC)", "result": "111 % of control"},
      {"measurement": "T/C", "setting": "dose: 10.0 mg/kg/injection, schedule: Q01DX Z (sc), vehicle: methylcellulose (MC)", "result": "158 % of control"},
      {"measurement": "T/C", "setting": "dose: 20.0 mg/kg/injection, schedule: Q01DX Z (sc), vehicle: methylcellulose (MC)", "result": "164 % of control"},
      {"measurement": "T/C", "setting": "dose: 40.0 mg/kg/injection, schedule: Q01DX Z (sc), vehicle: methylcellulose (MC)", "result": "158 % of control"},
      {"measurement": "T/C", "setting": "dose: 80.0 mg/kg/injection, schedule: Q01DX Z (sc), vehicle: methylcellulose (MC)", "result": "152 % of control"}
    ]},
    {"smiles": "COCCCN=C(N)c1ccc(NC(=O)c2ccc(C(=O)Nc3ccc(C(N)=NCCCOC)cc3)cc2)cc1", "values": [
      {"measurement": "T/C", "setting": "dose: 8.4 mg/kg/injection, schedule: Q01DX Z (sc), vehicle: saline", "result": "158 % of control"},
      {"measurement": "T/C", "setting": "dose: 39.0 mg/kg/injection, schedule: Q01DX Z (sc), vehicle: saline", "result": "100 % of control"}
    ]}
  ]
}
